# pIC50: −log10 of the molar value. Where “and” joins values, the source holds several entries; their conditions need not be identical. Equal entries are not always repeated.
# Key:
# Human β2 adrenoceptor = Human β2 adrenoceptor (Homo sapiens, UniProt P07550); conditions: read-out: B2 binding affinity
# Human M3 receptor = Human M3 receptor (Homo sapiens, UniProt P20309); conditions: read-out: M3 binding affinity
# Sequence of Human M3 receptor (P20309 whole entry): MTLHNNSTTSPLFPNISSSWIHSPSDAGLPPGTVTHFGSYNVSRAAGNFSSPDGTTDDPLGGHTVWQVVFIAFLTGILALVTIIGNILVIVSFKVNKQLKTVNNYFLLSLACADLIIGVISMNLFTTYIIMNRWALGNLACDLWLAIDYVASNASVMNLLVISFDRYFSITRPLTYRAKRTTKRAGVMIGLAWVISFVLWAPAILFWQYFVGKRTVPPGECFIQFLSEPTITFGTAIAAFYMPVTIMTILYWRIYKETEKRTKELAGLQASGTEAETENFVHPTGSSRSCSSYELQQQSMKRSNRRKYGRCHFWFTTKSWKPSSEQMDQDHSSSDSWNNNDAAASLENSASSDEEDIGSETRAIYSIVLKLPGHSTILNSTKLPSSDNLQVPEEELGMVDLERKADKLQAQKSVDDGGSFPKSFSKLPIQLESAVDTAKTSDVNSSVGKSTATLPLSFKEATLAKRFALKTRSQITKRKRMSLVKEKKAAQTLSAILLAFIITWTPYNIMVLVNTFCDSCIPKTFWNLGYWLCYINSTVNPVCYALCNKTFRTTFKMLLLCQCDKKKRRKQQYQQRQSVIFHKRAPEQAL
# Sequence of Human β2 adrenoceptor (P07550 whole entry): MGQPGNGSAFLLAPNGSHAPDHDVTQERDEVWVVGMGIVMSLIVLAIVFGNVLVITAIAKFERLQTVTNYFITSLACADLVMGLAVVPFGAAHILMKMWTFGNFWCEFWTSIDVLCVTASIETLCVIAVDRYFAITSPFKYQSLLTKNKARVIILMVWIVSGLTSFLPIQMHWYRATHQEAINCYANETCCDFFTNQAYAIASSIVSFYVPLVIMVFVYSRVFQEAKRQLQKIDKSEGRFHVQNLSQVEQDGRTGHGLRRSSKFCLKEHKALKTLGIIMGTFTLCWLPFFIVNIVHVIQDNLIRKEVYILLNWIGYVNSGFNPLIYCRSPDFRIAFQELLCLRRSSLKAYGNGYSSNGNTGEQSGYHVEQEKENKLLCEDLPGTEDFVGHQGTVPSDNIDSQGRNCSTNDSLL
Compound,pIC50 (Human β2 adrenoceptor),pIC50 (Human M3 receptor)
"O=C(COc1cccc([C@](O)(C(=O)OCC2CCN(Cc3ccccc3)CC2)c2ccccc2)c1)N1CCC(CNC[C@H](O)c2ccc(O)c3[nH]c(=O)ccc23)CC1 [Compound 36, (S)-(1-benzylpiperidin-4-yl)methyl 2-hydroxy-2-(3-(2-(4-((((R)-2-hydroxy-2-(8-hydroxy-2-oxo-1,2-dihydroquinolin-5-yl)ethyl)amino)methyl)piperidin-1-yl)-2-oxoethoxy)phenyl)-2-phenylacetate]",> 9.52,> 9.52
"O=C(OCC1CCN(Cc2ccccc2)CC1)C(O)(c1cccc(F)c1)c1cccc(OCCCCCNC[C@H](O)c2ccc(O)c3[nH]c(=O)ccc23)c1 (stereo partly drawn) [Compound 4, (1-benzylpiperidin-4-yl)methyl 2-(3-fluorophenyl)-2-hydroxy-2-(3-((5-(((R)-2-hydroxy-2-(8-hydroxy-2-oxo-1,2-dihydroquinolin-5-yl)ethyl)amino)pentyl)oxy)phenyl)acetate]",> 9.52,8.52 to 9.52
"O=C(c1ccc(CCNC[C@H](O)c2ccc(O)c3[nH]c(=O)ccc23)cc1)N1CCC2(CC1)CN(C(=O)c1ccc(COc3cccc([C@](O)(C(=O)OCC4CCN(Cc5ccccc5)CC4)c4ccccc4)c3)cc1)CCO2 [Compound 121, (1-benzylpiperidin-4-yl)methyl (S)-2-hydroxy-2-(3-((4-(9-(4-(2-(((R)-2-hydroxy-2-(8-hydroxy-2-oxo-1,2-dihydroquinolin-5-yl)ethyl)amino)ethyl)benzoyl)-1-oxa-4,9-diazaspiro[5.5]undecane-4-carbonyl)benzyl)oxy)phenyl)-2-phenylacetate]",> 9.52,> 9.52
"COc1cc(NC(=O)COc2cccc([C@](O)(C(=O)OCC3CCN(Cc4ccccc4)CC3)c3ccccc3)c2)ccc1CNC[C@H](O)c1ccc(O)c2[nH]c(=O)ccc12 [Compound 42A, (S)-(1-benzylpiperidin-4-yl)methyl 2-hydroxy-2-(3-(2-((4-((((R)-2-hydroxy-2-(8-hydroxy-2-oxo-1,2-dihydroquinolin-5-yl)ethyl)amino)methyl)-3-methoxyphenyl)amino)-2-oxoethoxy)phenyl)-2-phenylacetate]",8.52 to 9.52,> 9.52
"O=C(COc1cccc([C@](O)(C(=O)OCC2CCN(Cc3ccccc3)CC2)c2ccccc2)c1)N1C[C@@H]2CCN(C(=O)c3ccc(CCNC[C@H](O)c4ccc(O)c5[nH]c(=O)ccc45)cc3)[C@@H]2C1 [Compound 112, (1-benzylpiperidin-4-yl)methyl (S)-2-hydroxy-2-(3-(2-((3aS,6aS)-1-(4-(2-(((R)-2-hydroxy-2-(8-hydroxy-2-oxo-1,2-dihydroquinolin-5-yl)ethyl)amino)ethyl)benzoyl)hexahydropyrrolo[3,4-b]pyrrol-5(1H)-yl)-2-oxoethoxy)phenyl)-2-phenylacetate]",> 9.52,8.52 to 9.52
"O=C(N[C@H]1C[C@H](NC(=O)c2ccc(COc3cccc([C@](O)(C(=O)OCC4CCN(Cc5ccccc5)CC4)c4ccccc4)c3)cc2)C1)c1ccc(CCNC[C@H](O)c2ccc(O)c3[nH]c(=O)ccc23)cc1 [Compound 114, (1-Benzylpiperidin-4-yl)methyl (S)-2-hydroxy-2-(3-((4-(((1R,3S)-3-(4-(2-(((R)-2-hydroxy-2-(8-hydroxy-2-oxo-1,2-dihydroquinolin-5-yl)ethyl)amino)-ethyl)benzamido)cyclobutyl)carbamoyl)benzyl)oxy)phenyl)-2-phenylacetate]",8.52 to 9.52,8.52 to 9.52
"O=C(COc1cccc([C@](O)(C(=O)OCC2CCN(Cc3ccccc3)CC2)c2ccccc2)c1)N[C@H]1CCCN(C(=O)c2ccc(CNC[C@H](O)c3ccc(O)c4[nH]c(=O)ccc34)cc2)C1 [Compound 69, (1-benzylpiperidin-4-yl)methyl (S)-2-hydroxy-2-(3-(2-(((S)-1-(4-((((R)-2-hydroxy-2-(8-hydroxy-2-oxo-1,2-dihydroquinolin-5-yl)ethyl)amino)methyl)benzoyl)piperidin-3-yl)amino)-2-oxoethoxy)phenyl)-2-phenylacetate]",8.52 to 9.52,8.52 to 9.52
"O=C(COc1cccc([C@](O)(C(=O)OCC2CCN(Cc3ccccc3)CC2)c2ccccc2)c1)N[C@H]1C[C@H](NC(=O)c2ccc(CNC[C@H](O)c3ccc(O)c4[nH]c(=O)ccc34)cc2Cl)C1 [Compound 133, (1-benzylpiperidin-4-yl)methyl (S)-2-(3-(2-(((1R,3S)-3-(2-chloro-4-((((R)-2-hydroxy-2-(8-hydroxy-2-oxo-1,2-dihydroquinolin-5-yl)ethyl)amino)methyl)benzamido)cyclobutyl)amino)-2-oxoethoxy)phenyl)-2-hydroxy-2-phenylacetate]",> 9.52,> 9.52
"O=C(COc1cccc([C@](O)(C(=O)OCC2CCN(Cc3ccccc3)CC2)c2ccccc2)c1)N1C[C@H]2CCN(C(=O)c3ccc(CCNC[C@H](O)c4ccc(O)c5[nH]c(=O)ccc45)cc3)[C@H]2C1 [Compound 111, (1-benzylpiperidin-4-yl)methyl (S)-2-hydroxy-2-(3-(2-((3aR,6aR)-1-(4-(2-(((R)-2-hydroxy-2-(8-hydroxy-2-oxo-1,2-dihydroquinolin-5-yl)ethyl)amino)ethyl)benzoyl)hexahydropyrrolo[3,4-b]pyrrol-5(1H)-yl)-2-oxoethoxy)phenyl)-2-phenylacetate]",8.52 to 9.52,8.52 to 9.52
"O=C(c1cccc(COc2cccc([C@](O)(C(=O)OCC3CCN(Cc4ccccc4)CC3)c3ccccc3)c2)c1)N(CCCNC[C@H](O)c1ccc(O)c2[nH]c(=O)ccc12)Cc1ccccc1 [Compound 45, (S)-(1-Benzylpiperidin-4-yl)methyl 2-(3-((3-(benzyl(3-(((R)-2-hydroxy-2-(8-hydroxy-2-oxo-1,2-dihydroquinolin-5-yl)ethyl)amino)propyl)carbamoyl)benzyl)oxy)phenyl)-2-hydroxy-2-phenylacetate]",8.52 to 9.52,8.52 to 9.52
"COc1cc(CNC[C@H](O)c2ccc(O)c3[nH]c(=O)ccc23)ccc1C(=O)N1CC(NC(=O)COc2cccc([C@](O)(C(=O)OCC3CCN(Cc4ccccc4)CC3)c3ccccc3)c2)C1 [Compound 82, (1-benzylpiperidin-4-yl)methyl (S)-2-hydroxy-2-(3-(2-((1-(4-((((R)-2-hydroxy-2-(8-hydroxy-2-oxo-1,2-dihydroquinolin-5-yl)ethyl)amino)methyl)-2-methoxybenzoyl)azetidin-3-yl)amino)-2-oxoethoxy)phenyl)-2-phenylacetate]",8.52 to 9.52,8.52 to 9.52
"COc1cc(CNC[C@H](O)c2ccc(O)c3[nH]c(=O)ccc23)ccc1C(=O)NCc1ccc(COc2cccc([C@](O)(C(=O)OCC3CCN(Cc4ccccc4)CC3)c3ccccc3)c2)cc1 [Compound 42E, (1-benzylpiperidin-4-yl)methyl (S)-2-hydroxy-2-(3-((4-((4-((((R)-2-hydroxy-2-(8-hydroxy-2-oxo-1,2-dihydroquinolin-5-yl)ethyl)amino)methyl)-2-methoxybenzamido)methyl)benzyl)oxy)phenyl)-2-phenylacetate]",> 9.52,8.52 to 9.52
"COc1cc(NC(=O)COc2cccc([C@](O)(C(=O)OCC3CCN(Cc4ccccc4)CC3)c3ccccc3)c2)c(F)cc1CNC[C@H](O)c1ccc(O)c2[nH]c(=O)ccc12 [Compound 42B, (1-benzylpiperidin-4-yl)methyl (S)-2-(3-(2-((2-fluoro-4-((((R)-2-hydroxy-2-(8-hydroxy-2-oxo-1,2-dihydroquinolin-5-yl)ethyl)amino)methyl)-5-methoxyphenyl)amino)-2-oxoethoxy)phenyl)-2-hydroxy-2-phenylacetate]",> 9.52,> 9.52 and 8.52 to 9.52
"O=C(c1ccc(C(=O)N2CCC(COc3cccc([C@](O)(C(=O)OCC4CCN(Cc5ccccc5)CC4)c4ccccc4)c3)CC2)s1)N1CCC(CNC[C@H](O)c2ccc(O)c3[nH]c(=O)ccc23)CC1 [Compound 156, (1-Benzylpiperidin-4-yl)methyl (S)-2-hydroxy-2-(3-((1-(5-(4-((((R)-2-hydroxy-2-(8-hydroxy-2-oxo-1,2-dihydroquinolin-5-yl)ethyl)amino)methyl)piperidine-1-carbonyl)thiophene-2-carbonyl)piperidin-4-yl)methoxy)phenyl)-2-phenylacetate]",> 9.52,> 9.52
"O=C(COc1cccc([C@](O)(C(=O)OCC2CCN(Cc3ccccc3)CC2)c2ccccc2)c1)NC1CCN(C(=O)c2ccc(CNC[C@H](O)c3ccc(O)c4[nH]c(=O)ccc34)cc2)CC1 [Compound 65, (1-benzylpiperidin-4-yl)methyl (S)-2-hydroxy-2-(3-(2-((1-(4-((((R)-2-hydroxy-2-(8-hydroxy-2-oxo-1,2-dihydroquinolin-5-yl)ethyl)amino)methyl)benzoyl)piperidin-4-yl)amino)-2-oxoethoxy)phenyl)-2-phenylacetate]",8.52 to 9.52,> 9.52
"O=C(OCC1CCN(Cc2ccccc2)CC1)[C@](O)(c1ccccc1)c1cccc(OCCCCCCNCC(O)c2ccc(O)c3[nH]c(=O)ccc23)c1 (stereo in doubt) [Compound 29, (S)-(1-benzylpiperidin-4-yl)methyl 2-hydroxy-2-(3-((6-(((R)-2-hydroxy-2-(8-hydroxy-2-oxo-1,2-dihydroquinolin-5-yl)ethyl)amino)hexyl)oxy)phenyl)-2-phenylacetate]",> 9.52,> 9.52
"O=C(COc1cccc([C@](O)(C(=O)OCC2CCN(Cc3ccccc3)CC2)c2ccccc2)c1)N[C@H]1C[C@H](NC(=O)c2ccc(CNC[C@H](O)c3ccc(O)c4[nH]c(=O)ccc34)c(OC(F)(F)F)c2)C1 [Compound 141, (1-benzylpiperidin-4-yl)methyl (S)-2-hydroxy-2-(3-(2-(((1R,3S)-3-(4-((((R)-2-hydroxy-2-(8-hydroxy-2-oxo-1,2-dihydroquinolin-5-yl)ethyl)amino)methyl)-3-(trifluoromethoxy)benzamido)cyclobutyl)amino)-2-oxoethoxy)phenyl)-2-phenylacetate]",8.52 to 9.52,8.52 to 9.52
"O=C(NCCCOc1cccc([C@](O)(C(=O)O[C@@H]2CCN(Cc3ccccc3)C2)c2ccccc2)c1)c1ccc(CNC[C@H](O)c2ccc(O)c3[nH]c(=O)ccc23)cc1 [Compound 163, (R)-1-benzylpyrrolidin-3-yl (S)-2-hydroxy-2-(3-(3-(4-((((R)-2-hydroxy-2-(8-hydroxy-2-oxo-1,2-dihydroquinolin-5-yl)ethyl)amino)methyl)benzamido)propoxy)phenyl)-2-phenylacetate]",> 9.52,
